Laboratory results published in US11617726B2, “Method for preventing, treating, or ameliorating a microbial infection” (priority 2018, dated 2023).

System: Acinetobacter baumannii isolates
Test: Antimicrobial susceptibility test, disc diffusion method (CLSI M100-S24)
Format: cell-based
Set-up: key to Inhibition zone: “NZ” indicated that no zone of inhibition was observed
Settings: disc diffusion
Method: A total of 33 non-duplicate, non-consecutive clinical isolates of Multi-Drug Resistant (MDR) Acinetobacter baumannii were collected from burn wards (“AB1-AB33”). Acinetobacter baumannii ATCC BAA 747 and Pseudomonas aeruginosa ATCC 27853 were used as control strains. The isolates were stored at −80° C. in trypticase soy broth containing 20% glycerol.
Antimicrobial susceptibility tests of the collection of isolates were conducted using the disc diffusion method. The experiment was performed according to the recommendations and guidelines of Clinical Laboratory Standard Institutes (CLSI M100-S24; 2014). Clinical and Laboratory Standards Institute (CLSI), “Performance standards for antimicrobial susceptibility testing; twenty-fourth informational supplement,” Document M100-S24, Clinical and Laboratory Standards Institute (CLSI), Wayne, Pa., USA, 2014.
A panel of commercial antibiotic discs (Amoxicillin (AMX), Amoxicillin/clavulanic acid (AMX/CLA), Piperacillin (PIP), Piperacillin/Tazobactam (PIP/TAZ), Ceftazidime (CAZ), Cefotaxime (CTX), Cefepime (FEP), Cefoxitin (FOX), Aztreonam (ATM), Imipenem (IP), Gentamicin (GEN), Amikacin (AK), Neomycin (NEO), Levofloxacin (LEV), Chloramphenicol (CHL), Tetracycline (TET), sulfamethoxazole/trimethoprim (SUL/TRI) was used for susceptibility testing. All commercial antibiotic discs were purchased from BBL (Becton Dickinson, USA).
Forty grams of Mueller-Hinton Agar (MHA) were suspended in 1 Liter distilled water and then boiled to dissolve the powder completely. The medium was sterilized by autoclaving at 121° C. for 15 min. After autoclaving, the medium was cooled to 45° C. and 25 mL of molten agar media was poured into sterile Petri dishes (90 mm diameter) to give a depth of about 4 mm. The surface of the agar was dried to remove excess moisture before use. The plates were stored at 4-8° C. in sealed plastic bags if not used immediately.
The inoculum suspension was prepared by selecting three to five morphologically similar colonies from overnight growth (16-24 h of incubation) on blood agar medium. […] The suspension density was measured using a UV spectrophotometer calibrated with a 0.5 McFarland standard. The density of the suspension was adjusted to McFarland 0.5 by addition of saline or more microorganisms. The adjusted inoculum suspension was used within 60 min of preparation.
A sterile cotton swab was dipped into the bacterial suspension and the excess fluid was removed by turning the swab against the inside wall of the tube to avoid over-inoculation of plates. The inoculum was spread evenly over the entire surface of the agar plate by swabbing in three directions.
The predetermined panel of antimicrobial disks was applied firmly on the inoculated Mueller-Hinton agar surface within 15 min of inoculation of the plates by a disc dispenser device. A maximum of six disks were accommodated on a 90-mm circular plate.
Within 15 min of application of antimicrobial disks, the plates were inverted and incubated aerobically at 35-37° C. for 18-20 h.
After incubation, inhibition zones were measured at the point where no obvious growth is detected by the unaided eye when the plate is held about 30 cm from the eye. Inhibition zone diameters were measured to the nearest millimeter with a ruler. The plates were read from the back of the plate with reflected light against a dark background. Zone diameters were interpreted and categorized as susceptible “S”, intermediate “I”, or resistant “R” according to the CLSI clinical breakpoint tables (see Table 1 and Table 2).

`CC(C)(O/N=C(\C(=O)N[C@@H]1C(=O)N2C(C(=O)[O-])=C(C[n+]3ccccc3)CS[C@H]12)c1csc(N)n1)C(=O)O` [CAZ, Ceftazidime] showed an Inhibition zone (isolate AB1) of 20 mm, an Inhibition zone (isolate AB2) of 17 mm and an Inhibition zone (isolate AB3) of 26 mm. For the same compound, the Inhibition zone (isolate AB4) was 21 mm, the Inhibition zone (isolate AB5) was 9 mm and the Inhibition zone (isolate AB6) was 28 mm. The Inhibition zone (isolate AB7) was “NZ”, the Inhibition zone (isolate AB8) was “NZ” and the Inhibition zone (isolate AB9) was 21 mm. For the same compound, the Inhibition zone (isolate AB10) was “NZ”, the Inhibition zone (isolate AB11) was “NZ” and the Inhibition zone (isolate AB12) was “NZ”. The Inhibition zone (isolate AB13) was “NZ”, the Inhibition zone (isolate AB14) was “NZ” and the Inhibition zone (isolate AB15) was “NZ”. For the same compound, the Inhibition zone (isolate AB16) was 32 mm, the Inhibition zone (isolate AB17) was 12 mm and the Inhibition zone (isolate AB18) was “NZ”. The Inhibition zone (isolate AB19) was “NZ”, the Inhibition zone (isolate AB20) was “NZ” and the Inhibition zone (isolate AB21) was “NZ”. The Inhibition zone (isolate AB22) was “NZ”, the Inhibition zone (isolate AB23) was “NZ” and the Inhibition zone (isolate AB24) was “NZ”. The Inhibition zone (isolate AB25) was 17 mm, the Inhibition zone (isolate AB26) was 15 mm and the Inhibition zone (isolate AB27) was 8 mm. The Inhibition zone (isolate AB28) was 8 mm, the Inhibition zone (isolate AB29) was “NZ” and the Inhibition zone (isolate AB30) was “NZ”. For the same compound, the Inhibition zone (isolate AB31) was 8 mm, the Inhibition zone (isolate AB32) was 8 mm and the Inhibition zone (isolate AB33) was 22 mm.

In the case of `O=C(N[C@H](CO)[C@H](O)c1ccc([N+](=O)[O-])cc1)C(Cl)Cl` [CHL, Chloramphenicol], the Inhibition zone (isolate AB1) is reported as “NZ”, the Inhibition zone (isolate AB2) is reported as 24 mm and the Inhibition zone (isolate AB3) is reported as 26 mm. The Inhibition zone (isolate AB4) was 23 mm, the Inhibition zone (isolate AB5) was 8 mm and the Inhibition zone (isolate AB6) was “NZ”. For the same compound, the Inhibition zone (isolate AB7) was “NZ”, the Inhibition zone (isolate AB8) was 7 mm and the Inhibition zone (isolate AB9) was 24 mm. The Inhibition zone (isolate AB10) was “NZ”, the Inhibition zone (isolate AB11) was “NZ” and the Inhibition zone (isolate AB12) was “NZ”. For the same compound, the Inhibition zone (isolate AB13) was “NZ”, the Inhibition zone (isolate AB14) was “NZ” and the Inhibition zone (isolate AB15) was 10 mm. The Inhibition zone (isolate AB16) was 30 mm, the Inhibition zone (isolate AB17) was 13 mm and the Inhibition zone (isolate AB18) was 8 mm. The Inhibition zone (isolate AB19) was 8 mm, the Inhibition zone (isolate AB20) was “NZ” and the Inhibition zone (isolate AB21) was “NZ”. The Inhibition zone (isolate AB22) was “NZ”, the Inhibition zone (isolate AB23) was “NZ” and the Inhibition zone (isolate AB24) was 8 mm. The Inhibition zone (isolate AB25) was “NZ”, the Inhibition zone (isolate AB26) was 25 mm and the Inhibition zone (isolate AB27) was “NZ”. The Inhibition zone (isolate AB28) was 14 mm, the Inhibition zone (isolate AB29) was 12 mm and the Inhibition zone (isolate AB30) was 11 mm. It also gave an Inhibition zone (isolate AB31) of 8 mm, an Inhibition zone (isolate AB32) of 9 mm and an Inhibition zone (isolate AB33) of 18 mm.

In the case of `CO/N=C(\C(=O)N[C@@H]1C(=O)N2C(C(=O)O)=C(COC(C)=O)CS[C@H]12)c1csc(N)n1` [CTX, Cefotaxime], the Inhibition zone (isolate AB1) is reported as “NZ”, the Inhibition zone (isolate AB2) is reported as “NZ” and the Inhibition zone (isolate AB3) is reported as 15 mm. For the same compound, the Inhibition zone (isolate AB4) was 8 mm, the Inhibition zone (isolate AB5) was “NZ” and the Inhibition zone (isolate AB6) was 17 mm. For the same compound, the Inhibition zone (isolate AB7) was “NZ”, the Inhibition zone (isolate AB8) was “NZ” and the Inhibition zone (isolate AB9) was 11 mm. The Inhibition zone (isolate AB10) was “NZ”, the Inhibition zone (isolate AB11) was “NZ” and the Inhibition zone (isolate AB12) was “NZ”. The Inhibition zone (isolate AB13) was “NZ”, the Inhibition zone (isolate AB14) was “NZ” and the Inhibition zone (isolate AB15) was “NZ”. The Inhibition zone (isolate AB16) was 32 mm, the Inhibition zone (isolate AB17) was “NZ” and the Inhibition zone (isolate AB18) was “NZ”. For the same compound, the Inhibition zone (isolate AB19) was “NZ”, the Inhibition zone (isolate AB20) was “NZ” and the Inhibition zone (isolate AB21) was “NZ”. For the same compound, the Inhibition zone (isolate AB22) was “NZ”, the Inhibition zone (isolate AB23) was “NZ” and the Inhibition zone (isolate AB24) was “NZ”. For the same compound, the Inhibition zone (isolate AB25) was 16 mm, the Inhibition zone (isolate AB26) was “NZ” and the Inhibition zone (isolate AB27) was “NZ”. The Inhibition zone (isolate AB28) was “NZ”, the Inhibition zone (isolate AB29) was “NZ” and the Inhibition zone (isolate AB30) was “NZ”. The Inhibition zone (isolate AB31) was 8 mm, the Inhibition zone (isolate AB32) was 8 mm and the Inhibition zone (isolate AB33) was 21 mm.

In the case of `CO/N=C(\C(=O)N[C@@H]1C(=O)N2C(C(=O)[O-])=C(C[N+]3(C)CCCC3)CS[C@H]12)c1csc(N)n1` [FEP, Cefepime], the Inhibition zone (isolate AB1) is reported as 20 mm, the Inhibition zone (isolate AB2) is reported as 16 mm and the Inhibition zone (isolate AB3) is reported as 18 mm. For the same compound, the Inhibition zone (isolate AB4) was 14 mm, the Inhibition zone (isolate AB5) was 7 mm and the Inhibition zone (isolate AB6) was 21 mm. For the same compound, the Inhibition zone (isolate AB7) was “NZ”, the Inhibition zone (isolate AB8) was “NZ” and the Inhibition zone (isolate AB9) was 22 mm. The Inhibition zone (isolate AB10) was 7 mm, the Inhibition zone (isolate AB11) was “NZ” and the Inhibition zone (isolate AB12) was “NZ”. The Inhibition zone (isolate AB13) was “NZ”, the Inhibition zone (isolate AB14) was “NZ” and the Inhibition zone (isolate AB15) was 8 mm. The Inhibition zone (isolate AB16) was 35 mm, the Inhibition zone (isolate AB17) was 11 mm and the Inhibition zone (isolate AB18) was “NZ”. For the same compound, the Inhibition zone (isolate AB19) was “NZ”, the Inhibition zone (isolate AB20) was “NZ” and the Inhibition zone (isolate AB21) was “NZ”. The Inhibition zone (isolate AB22) was “NZ”, the Inhibition zone (isolate AB23) was “NZ” and the Inhibition zone (isolate AB24) was 7 mm. It also gave an Inhibition zone (isolate AB25) of 10 mm, an Inhibition zone (isolate AB26) of 14 mm and an Inhibition zone (isolate AB27) of 8 mm. For the same compound, the Inhibition zone (isolate AB28) was “NZ”, the Inhibition zone (isolate AB29) was “NZ” and the Inhibition zone (isolate AB30) was “NZ”. For the same compound, the Inhibition zone (isolate AB31) was “NZ”, the Inhibition zone (isolate AB32) was “NZ” and the Inhibition zone (isolate AB33) was 18 mm.
